Test results published in ChEMBL document CHEMBL4190187, “Discovery of pyrazolopyrimidine derivatives as novel inhibitors of ataxia telangiectasia and rad3 related protein (ATR)” (Bioorg Med Chem Lett, 2017).

Legend:
[1] = molecular target: CDK4/Cyclin D3 (Homo sapiens) (UniProt P11802+P30281); assay: Inhibition of recombinant full-length human CDK4/Cyclin D3 at 1 uM using Rb fragment as substrate after 40 mins in presence of [gamma-33P]ATP by scintillation counting method; type: protein-complex assay
[2] = molecular target: Phosphatidylinositol 5-phosphate 4-kinase type-2 alpha (Homo sapiens) (UniProt P48426); assay: Inhibition of recombinant full-length human PIP4K2alpha at 1 uM using phosphatidylinositol 5-phosphate/phosphatidylserine as substrate after 40 mins in presence of [gamma-33P]ATP by scintillation counting method
[3] = molecular target: Homeodomain-interacting protein kinase 4 (Homo sapiens) (UniProt Q8NE63); assay: Inhibition of recombinant full-length human HIPK4 at 1 uM using RRRFRPASPLRGPPK as substrate after 40 mins in presence of [gamma-33P]ATP by scintillation counting method
Chain of Homeodomain-interacting protein kinase 4 (Homo sapiens) (Q8NE63 whole entry): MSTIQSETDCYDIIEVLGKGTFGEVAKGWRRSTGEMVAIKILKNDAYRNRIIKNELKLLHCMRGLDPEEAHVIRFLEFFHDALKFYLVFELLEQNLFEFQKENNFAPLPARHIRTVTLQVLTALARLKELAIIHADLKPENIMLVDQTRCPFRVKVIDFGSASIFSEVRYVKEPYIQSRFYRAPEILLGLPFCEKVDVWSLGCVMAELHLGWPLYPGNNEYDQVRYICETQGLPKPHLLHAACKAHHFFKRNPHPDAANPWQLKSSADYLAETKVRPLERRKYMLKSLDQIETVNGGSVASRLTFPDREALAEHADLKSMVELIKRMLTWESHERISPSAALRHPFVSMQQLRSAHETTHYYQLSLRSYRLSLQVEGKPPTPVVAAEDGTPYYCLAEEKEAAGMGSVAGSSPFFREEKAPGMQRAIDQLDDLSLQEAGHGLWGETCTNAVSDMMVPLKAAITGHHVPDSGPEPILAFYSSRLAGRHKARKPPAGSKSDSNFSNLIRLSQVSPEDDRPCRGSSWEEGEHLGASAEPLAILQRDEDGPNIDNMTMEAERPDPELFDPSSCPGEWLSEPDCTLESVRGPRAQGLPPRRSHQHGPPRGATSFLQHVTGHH

[4] = molecular target: Serine/threonine-protein kinase DCLK2 (Homo sapiens) (UniProt Q8N568); assay: Inhibition of recombinant human DCAMKL2 (376 to end residues) at 1 uM using KKLNRTLSFAEPG as substrate after 40 mins in presence of [gamma-33P]ATP by scintillation counting method
[5] = molecular target: Serine/threonine-protein kinase Sgk1 (Homo sapiens) (UniProt O00141); assay: Inhibition of recombinant human SGK (60 to end residues) at 1 uM using GRPRTSSFAEGKK as substrate after 40 mins in presence of [gamma-33P]ATP by scintillation counting method
[6] = molecular target: Serine/threonine-protein kinase PAK 3 (Homo sapiens) (UniProt O75914); assay: Inhibition of recombinant full-length human PAK3 at 1 uM using RRRLSFAEPG as substrate after 40 mins in presence of [gamma-33P]ATP by scintillation counting method
[7] = molecular target: Serine/threonine-protein kinase PLK1 (Homo sapiens) (UniProt P53350); assay: Inhibition of recombinant full-length human Plk1 at 1 uM using casein as substrate after 40 mins in presence of [gamma-33P]ATP by scintillation counting method
[8] = molecular target: Serine/threonine-protein kinase BRSK2 (Homo sapiens) (UniProt Q8IWQ3); assay: Inhibition of recombinant human BrSK2 (2 to end residues) at 1 uM using KKLNRTLSFAEPG as substrate after 40 mins in presence of [gamma-33P]ATP by scintillation counting method
Chain of Serine/threonine-protein kinase BRSK2 (Homo sapiens) (Q8IWQ3 whole entry): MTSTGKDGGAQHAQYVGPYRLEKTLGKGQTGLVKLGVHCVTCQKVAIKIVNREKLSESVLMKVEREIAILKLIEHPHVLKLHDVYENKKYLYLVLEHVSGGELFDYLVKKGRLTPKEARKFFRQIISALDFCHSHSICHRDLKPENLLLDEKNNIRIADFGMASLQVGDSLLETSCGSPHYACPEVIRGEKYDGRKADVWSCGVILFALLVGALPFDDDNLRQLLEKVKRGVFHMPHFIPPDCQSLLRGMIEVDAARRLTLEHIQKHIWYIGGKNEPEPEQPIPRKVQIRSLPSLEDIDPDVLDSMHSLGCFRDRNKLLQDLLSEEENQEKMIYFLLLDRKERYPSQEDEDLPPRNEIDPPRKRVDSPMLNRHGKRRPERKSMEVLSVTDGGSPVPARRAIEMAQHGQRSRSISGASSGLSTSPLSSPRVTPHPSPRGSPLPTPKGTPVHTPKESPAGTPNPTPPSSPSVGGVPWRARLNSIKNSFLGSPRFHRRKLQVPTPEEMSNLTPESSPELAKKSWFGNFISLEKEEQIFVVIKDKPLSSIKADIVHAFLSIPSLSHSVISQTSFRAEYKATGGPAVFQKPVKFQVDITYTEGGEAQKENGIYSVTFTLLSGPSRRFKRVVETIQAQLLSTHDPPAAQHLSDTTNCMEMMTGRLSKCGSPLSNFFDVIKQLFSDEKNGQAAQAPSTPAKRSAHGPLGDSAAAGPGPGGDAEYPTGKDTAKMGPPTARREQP

[9] = molecular target: Ribosomal protein S6 kinase alpha-2 (Homo sapiens) (UniProt Q15349); assay: Inhibition of recombinant full-length human Rsk3 at 1 uM using KKKNRTLSVA as substrate after 40 mins in presence of [gamma-33P]ATP by scintillation counting method
[10] = molecular target: Hepatocyte growth factor receptor (Homo sapiens) (UniProt P08581); assay: Inhibition of recombinant human Met (974 to end residues) at 1 uM using KKKGQEEEYVFIE as substrate after 40 mins in presence of [gamma-33P]ATP by scintillation counting method
[11] = molecular target: Dual specificity protein kinase TTK (Homo sapiens) (UniProt P33981); assay: Inhibition of recombinant full-length human TTK at 1 uM using myelin basic protein as substrate after 40 mins in presence of [gamma-33P]ATP by scintillation counting method
[12] = molecular target: PI3-kinase p110-alpha/p85-alpha (Homo sapiens) (UniProt P27986+P42336); assay: Inhibition of recombinant full-length human p110a/p85a at 1 uM using phosphatidylinositol 4,5-bisphosphate as substrate after 40 mins in presence of [gamma-33P]ATP by scintillation counting method; type: protein-complex assay
[13] = molecular target: Calcium/calmodulin-dependent protein kinase type II subunit delta (Homo sapiens) (UniProt Q13557); assay: Inhibition of recombinant full-length human CAMK2delta at 1 uM using […] after 40 mins in presence of [gamma-33P]ATP by scintillation counting method
[14] = molecular target: Serine/threonine-protein kinase pim-2 (Homo sapiens) (UniProt Q9P1W9); assay: Inhibition of recombinant human PIM2 (2 to end residues) at 1 uM using RSRHSSYPAGT as substrate after 40 mins in presence of [gamma-33P]ATP by scintillation counting method
Chain of Serine/threonine-protein kinase pim-2 (Homo sapiens) (Q9P1W9 whole entry, looked up): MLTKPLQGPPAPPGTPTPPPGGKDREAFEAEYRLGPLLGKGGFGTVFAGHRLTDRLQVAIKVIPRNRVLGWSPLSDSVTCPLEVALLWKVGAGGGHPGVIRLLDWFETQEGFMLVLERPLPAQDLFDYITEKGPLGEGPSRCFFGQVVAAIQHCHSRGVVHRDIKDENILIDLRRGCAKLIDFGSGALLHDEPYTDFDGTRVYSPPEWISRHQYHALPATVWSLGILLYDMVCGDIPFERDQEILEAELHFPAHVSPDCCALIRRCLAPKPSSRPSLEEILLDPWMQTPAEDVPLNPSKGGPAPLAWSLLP

[15] = tested on: Receptor-type tyrosine-protein kinase FLT3 (Homo sapiens), P36888 [D835Y]; assay: Inhibition of recombinant human Flt3 D835Y mutant (564 to end residues) at 1 uM using EAIYAAPFAKKK as substrate after 40 mins in presence of [gamma-33P]ATP by scintillation counting method
[16] = molecular target: Dual specificity tyrosine-phosphorylation-regulated kinase 1A (Homo sapiens) (UniProt Q13627); assay: Inhibition of recombinant full-length human DYRK1A at 1 uM using RRRFRPASPLRGPPK as substrate after 40 mins in presence of [gamma-33P]ATP by scintillation counting method
[17] = molecular target: Serine/threonine-protein kinase MARK2 (Homo sapiens) (UniProt Q7KZI7); assay: Inhibition of recombinant full-length human PAR-1Balpha at 1 uM using KKKVSRSGLYRSPSMPENLNRPR as substrate after 40 mins in presence of [gamma-33P]ATP by scintillation counting method
[18] = molecular target: Serine/threonine-protein kinase Nek9 (Homo sapiens) (UniProt Q8TD19); assay: Inhibition of recombinant human NEK9 (1 to 324 residues) at 1 uM using myelin basic protein as substrate after 40 mins in presence of [gamma-33P]ATP by scintillation counting method
[19] = molecular target: Dual specificity protein kinase CLK4 (Homo sapiens) (UniProt Q9HAZ1); assay: Inhibition of recombinant human CLK4 (128 to end residues) at 1 uM using YRRAAVPPSPSLSRHSSPHQS(p)EDEEE as substrate after 40 mins in presence of [gamma-33P]ATP by scintillation counting method
Chain of Dual specificity protein kinase CLK4 (Homo sapiens) (Q9HAZ1 whole entry, looked up): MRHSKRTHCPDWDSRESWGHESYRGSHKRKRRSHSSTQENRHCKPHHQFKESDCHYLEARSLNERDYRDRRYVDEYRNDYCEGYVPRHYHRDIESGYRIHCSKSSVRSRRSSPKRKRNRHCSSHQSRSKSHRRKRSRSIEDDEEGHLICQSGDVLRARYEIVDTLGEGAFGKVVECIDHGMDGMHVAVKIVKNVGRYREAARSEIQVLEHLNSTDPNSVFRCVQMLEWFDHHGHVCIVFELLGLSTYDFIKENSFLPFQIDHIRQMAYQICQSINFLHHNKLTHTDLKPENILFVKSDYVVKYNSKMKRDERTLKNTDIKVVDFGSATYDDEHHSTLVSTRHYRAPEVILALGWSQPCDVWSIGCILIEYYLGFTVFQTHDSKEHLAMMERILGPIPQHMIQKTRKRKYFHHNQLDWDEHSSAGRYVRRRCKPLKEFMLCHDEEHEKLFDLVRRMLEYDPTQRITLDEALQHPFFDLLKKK

[20] = molecular target: Phosphatidylinositol 3-kinase (Mus musculus) (UniProt P26450+P42337); assay: Inhibition of recombinant full-length mouse PI3K p110a/p85a at 1 uM using phosphatidylinositol 4,5-bisphosphate as substrate after 40 mins in presence of [gamma-33P]ATP by scintillation counting method; type: protein assay
Chain of Phosphatidylinositol 3-kinase (Mus musculus) (P26450 whole entry, looked up): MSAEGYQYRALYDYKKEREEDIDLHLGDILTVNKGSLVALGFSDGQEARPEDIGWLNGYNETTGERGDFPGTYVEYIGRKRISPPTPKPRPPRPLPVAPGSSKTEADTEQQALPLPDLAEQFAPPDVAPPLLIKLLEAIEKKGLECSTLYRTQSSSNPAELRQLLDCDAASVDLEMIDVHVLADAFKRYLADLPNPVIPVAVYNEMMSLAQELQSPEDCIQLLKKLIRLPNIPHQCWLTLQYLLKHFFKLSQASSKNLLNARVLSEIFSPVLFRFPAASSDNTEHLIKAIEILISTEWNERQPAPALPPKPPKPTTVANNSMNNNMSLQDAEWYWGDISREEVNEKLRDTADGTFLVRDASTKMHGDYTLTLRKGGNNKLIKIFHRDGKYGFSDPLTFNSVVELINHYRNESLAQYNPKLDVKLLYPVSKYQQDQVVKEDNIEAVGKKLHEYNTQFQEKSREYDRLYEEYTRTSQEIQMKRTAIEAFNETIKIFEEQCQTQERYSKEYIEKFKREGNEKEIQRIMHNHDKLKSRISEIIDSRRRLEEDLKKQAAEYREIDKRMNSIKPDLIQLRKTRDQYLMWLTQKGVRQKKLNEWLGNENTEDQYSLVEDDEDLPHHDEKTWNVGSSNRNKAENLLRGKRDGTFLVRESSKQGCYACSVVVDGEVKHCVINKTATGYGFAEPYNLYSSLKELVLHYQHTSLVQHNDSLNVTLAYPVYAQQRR
Chain of Phosphatidylinositol 3-kinase (Mus musculus) (P42337 whole entry, looked up): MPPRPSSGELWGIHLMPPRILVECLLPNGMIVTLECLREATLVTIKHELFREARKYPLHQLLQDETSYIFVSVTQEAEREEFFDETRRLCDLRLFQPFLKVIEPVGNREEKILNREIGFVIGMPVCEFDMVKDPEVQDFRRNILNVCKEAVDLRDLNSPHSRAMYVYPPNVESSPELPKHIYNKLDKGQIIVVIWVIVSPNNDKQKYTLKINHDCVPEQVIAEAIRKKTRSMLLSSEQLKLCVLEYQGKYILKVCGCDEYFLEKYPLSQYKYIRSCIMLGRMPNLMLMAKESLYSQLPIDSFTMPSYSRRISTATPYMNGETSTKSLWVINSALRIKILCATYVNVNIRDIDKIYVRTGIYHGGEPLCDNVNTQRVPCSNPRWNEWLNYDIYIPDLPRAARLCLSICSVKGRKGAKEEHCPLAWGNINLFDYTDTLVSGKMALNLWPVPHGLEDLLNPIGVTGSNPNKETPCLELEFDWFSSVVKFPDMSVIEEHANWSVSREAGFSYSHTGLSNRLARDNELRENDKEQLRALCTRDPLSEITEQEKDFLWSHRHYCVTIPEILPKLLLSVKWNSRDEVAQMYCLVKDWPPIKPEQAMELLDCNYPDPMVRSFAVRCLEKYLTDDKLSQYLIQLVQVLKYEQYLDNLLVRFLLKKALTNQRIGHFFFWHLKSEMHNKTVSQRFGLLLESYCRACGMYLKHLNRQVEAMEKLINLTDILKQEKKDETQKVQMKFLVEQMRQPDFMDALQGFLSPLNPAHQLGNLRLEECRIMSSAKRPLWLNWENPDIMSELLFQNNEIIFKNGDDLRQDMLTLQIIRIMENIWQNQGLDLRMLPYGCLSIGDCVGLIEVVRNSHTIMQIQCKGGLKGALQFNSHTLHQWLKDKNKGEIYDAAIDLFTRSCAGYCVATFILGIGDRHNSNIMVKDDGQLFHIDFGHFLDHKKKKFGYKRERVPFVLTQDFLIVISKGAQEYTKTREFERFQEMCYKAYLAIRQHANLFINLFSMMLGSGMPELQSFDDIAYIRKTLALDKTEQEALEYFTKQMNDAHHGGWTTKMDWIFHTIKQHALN

[21] = molecular target: Protein-tyrosine kinase 2-beta (Homo sapiens) (UniProt Q14289); assay: Inhibition of recombinant full-length human Pyk2 at 1 uM using poly(Glu,Tyr) 4:1 as substrate after 40 mins in presence of [gamma-33P]ATP by scintillation counting method
[22] = molecular target: Ribosomal protein S6 kinase alpha-5 (Homo sapiens) (UniProt O75582); assay: Inhibition of recombinant human MSK1 (2 to end residues) at 1 uM using GRPRTSSFAEGKK as substrate after 40 mins in presence of [gamma-33P]ATP by scintillation counting method
[23] = molecular target: Serine/threonine-protein kinase Nek3 (Homo sapiens) (UniProt P51956); assay: Inhibition of recombinant full-length human NEK3 at 1 uM using myelin basic protein as substrate after 40 mins in presence of [gamma-33P]ATP by scintillation counting method
Chain of Serine/threonine-protein kinase Nek3 (Homo sapiens) (P51956 whole entry): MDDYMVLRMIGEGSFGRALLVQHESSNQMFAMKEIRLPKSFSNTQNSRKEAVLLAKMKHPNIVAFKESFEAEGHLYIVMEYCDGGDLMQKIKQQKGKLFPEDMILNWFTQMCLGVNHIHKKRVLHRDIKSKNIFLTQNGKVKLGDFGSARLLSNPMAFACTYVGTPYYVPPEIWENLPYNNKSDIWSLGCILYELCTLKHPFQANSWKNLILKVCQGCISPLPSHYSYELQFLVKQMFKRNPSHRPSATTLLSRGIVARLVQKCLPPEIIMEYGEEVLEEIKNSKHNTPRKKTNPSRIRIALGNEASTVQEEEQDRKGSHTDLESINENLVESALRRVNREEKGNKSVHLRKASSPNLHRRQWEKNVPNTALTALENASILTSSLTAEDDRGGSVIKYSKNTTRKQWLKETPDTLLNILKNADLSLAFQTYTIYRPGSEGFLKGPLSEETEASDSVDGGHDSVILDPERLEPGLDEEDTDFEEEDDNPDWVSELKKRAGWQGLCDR

[24] = molecular target: Serine/threonine-protein kinase Chk2 (Homo sapiens) (UniProt O96017); assay: Inhibition of recombinant human CHK2 (5 to end residues) at 1 uM using KKKVSRSGLYRSPSMPENLNRPR as substrate after 40 mins in presence of [gamma-33P]ATP by scintillation counting method
Chain of Serine/threonine-protein kinase Chk2 (Homo sapiens) (O96017 whole entry): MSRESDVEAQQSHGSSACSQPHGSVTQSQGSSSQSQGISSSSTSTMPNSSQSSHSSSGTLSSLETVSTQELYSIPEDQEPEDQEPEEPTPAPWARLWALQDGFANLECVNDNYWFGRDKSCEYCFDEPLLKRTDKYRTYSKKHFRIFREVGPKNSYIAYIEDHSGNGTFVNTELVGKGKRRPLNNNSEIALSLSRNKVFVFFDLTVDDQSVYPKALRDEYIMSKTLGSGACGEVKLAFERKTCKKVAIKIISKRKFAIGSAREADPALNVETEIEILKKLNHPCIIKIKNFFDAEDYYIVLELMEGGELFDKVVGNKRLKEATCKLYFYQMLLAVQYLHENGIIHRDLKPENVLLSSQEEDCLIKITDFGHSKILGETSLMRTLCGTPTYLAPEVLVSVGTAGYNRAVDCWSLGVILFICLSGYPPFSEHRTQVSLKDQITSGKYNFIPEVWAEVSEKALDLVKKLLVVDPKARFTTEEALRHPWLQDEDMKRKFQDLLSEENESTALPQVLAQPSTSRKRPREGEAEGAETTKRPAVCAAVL

## CS(=O)(=O)c1ccc(-n2nc(-c3cnc4[nH]ccc4c3)c3c(N)ncnc32)cc1
[1]
  inhibition: -9%
[2]
  inhibition: -2%
[3]
  inhibition: -4%
[4]
  inhibition: -1%
[5]
  inhibition: 2%
[6]
  inhibition: 4%
[7]
  inhibition: -1%
[8]
  inhibition: 3%
[9]
  inhibition: -8%
[10]
  inhibition: -4%
[11]
  inhibition: -6%
[12]
  inhibition: 6%
[13]
  inhibition: 3%
[14]
  inhibition: -7%
[15]
  inhibition: 37%
[16]
  inhibition: -6%
[17]
  inhibition: 6%
[18]
  inhibition: 11%
[19]
  inhibition: 11%
[20]
  inhibition: 10%
[21]
  inhibition: 25%
[22]
  inhibition: 0%
[23]
  inhibition: -7%
[24]
  inhibition: -3%
